Columns and labels:
MDSC = conditions: preclinical model; gemcitabine: spleen of tumor-induced mice (Clin Cancer Res 2005; 11: 6713-6721); cited from earlier work
IL-6 = assay: Cytokine expression in tumor cells after decitabine treatment, PCR (Example 7): IL-6; format: cell-based; conditions: MC38 expressing the CEA gene, 0, 10, 100 nM, 48 hours; FIG. 14
Protocol: (§1) In order to verify a possibility of a result that the MDSC creation itself in the bone marrow is decreased by the tumor cells, in addition to a direct apoptotic effect of the MDSC by the reduction of the MDSC cell population caused by the decitabine, an expression change in cytokines inducing the creation of the MDSC cell population after treating the decitabine in the tumor cells was measured.
(§2) Particularly, the decitabine was treated in each well for each concentration 0, 10, 100 nM in a colon cancer cell line MC38 expressing the CEA gene which was cultured for 1 week in a 6-well plate and cultured for 48 hours, and then the cells were collected. Thereafter, from the collected cells, total RNA was isolated by using a trizol reagent (Invitrogen, Carlsbad, Calif.) and then the isolated RNA 5 μg reacted with reverse transcriptase for 1 hour at 42° C. to synthesize a cDNA and 5 minutes at 95° C. to inactivate the enzyme. Polymerase chain reaction (PCR) was performed by using a primer in the following Table 1 by using the cDNA as a template of PCR and a PCR product was electrophoresed with an agarose gel and visualized to confirm expression of IL-6, IFN-γ and VEGF genes.

MDSC cell population = assay: In vitro apoptosis of MDSC cell population, bone marrow stem cells co-cultured with MC38 in Transwell (Example 6); format: cell-based, mouse; conditions: 50 nM, as compared with the gemcitabine; FIG. 13
Protocol: In order to verify effects of decitabine and gemcitabine on apoptosis of an MDSC cell population, the decitabine or the gemcitabine was treated in vitro and then a change in the number of cells in the MDSC cell population was measured.
Particularly, from the tumorigenic mice prepared in Example 1, the bone marrow was extracted and then bone marrow stem cells were isolated. Thereafter, while the bone marrow stem cells in a bottom well and cells of a colon cancer cell line MC38 expressing a CEA gene were co-cultured in an insert well […] with a DMEM culture medium by using a Transwell system, the decitabine and the gemcitabine of concentrations of 50 nM were treated at a third day after cell culture, respectively, and then cells after two days were collected. Thereafter, in order to measure the numbers of cells in the myeloid-based cell population and the MDSC cell population, the cell populations were stained by using an anti-CD11b antibody and an anti-GR1 antibody and then the number of cells was measured through a flow cytometer.

[1] = system: colon cancer cell line MC38 expressing a human CEA gene; format: in vivo, mouse; conditions: every 2 days, total of 10 times
Protocol: (§3) 150 μl PBS including a colon cancer cell line MC38 1.5×10^6 expressing a human CEA gene was injected hypodermically to the right flank of a 7 to 8-week-old female B6 mouse to form a tumor. The mouse was bred in a Seoul National University laboratory under a temperature of 23.5±1° C. and a humidity of 50±5% in a light/dark cycle of 12 hours. All animal experiments followed the guideline of the Animal Ethics Committee of Seoul National University.
It was verified whether decitabine was usable as an anticancer chemotherapy through immune treatment based on a bone marrow-based specific drug effect. First, in order to verify an effect of the decitabine on the tumorigenic mice, the decitabine was administrated to the tumorigenic mice prepared in Example 1 and then changes in tumor size and survival rate were measured.
Particularly, in the tumorigenic mice prepared in Example 1, decitabine (DAC) at a concentration of 40 mg/ml purchased from Sigma Co., Ltd. was diluted with 100 μl PBS to be 0, 0.125, 0.25, 0.5, and 1 mg/kg per mouse and then administrated in the right abdominal cavity (every 2 days and a total of 10 times) for each concentration to verify the tumor size and the survival rate. The tumor size was calculated by the following Equation after measuring a width and a length of a tumor mass at an interval of 2 to 3 days from the time when 10 days elapsed after injecting tumor cells: Long length×short length×short length/2. In the survival rate, the number of surviving mice in each group was calculated by the following Equation: The number of surviving mice/a total number of mice×100

[2] = system: myeloid-derived suppressor cells; assay: Dose with MDSC suppression effect in tumorigenic mice; format: in vivo
Protocol: In the preferred embodiment of the present invention, the inventors verified that in order to verify whether the decitabine suppresses the myeloid-derived suppressor cells produced from the bone marrow by the tumor, tumorigenic mice were prepared and the decitabine was administrated for each concentration, and as a result, an effect of suppressing the myeloid-derived suppressor cells by the decitabine is excellent in a dose range of 0.5 to 1 mg/kg.
Accordingly, through Examples 1 to 8, it was verified that the decitabine had excellent effects of suppressing the MDSC and inducing the apoptosis as compared with the gemcitabine and may enhance the effect of a cancer immunotherapy. Further, when the decitabine has an excellent MDSC suppression effect at 0.5 mg/kg and a fifth part to a tenth part of an effective dose (5.25 mg/kg/once, 34 mg/kg/cycle) applied to an actual patient is compared with an effective dose of 120 mg/kg at which the gemcitabine has the MDSC suppression effect, it was verified that the effective dose is a low concentration of a hundredth part or more.

VEGF = assay: Cytokine expression in tumor cells after decitabine treatment, PCR (Example 7): VEGF; format: cell-based; conditions: MC38 expressing the CEA gene, 0, 10, 100 nM, 48 hours; FIG. 14
Protocol: as §1, §2

IFN-γ = assay: Cytokine expression in tumor cells after decitabine treatment, PCR (Example 7): IFN-γ; format: cell-based; conditions: MC38 expressing the CEA gene, 0, 10, 100 nM, 48 hours; FIG. 14
Protocol: as §1, §2

[3] = system: immune cells in the bone marrow; assay: Number of immune cells in bone marrow of tumorigenic mice, flow cytometer (Example 5-1); format: in vivo, mouse; conditions: for number of T cell populations CD3+ and CD3+CD4+ in the bone marrow: FIG. 8
Protocol: (§4) Particularly, in the tumorigenic mice prepared in Example 1, decitabine (DAC) or gemcitabine (GEM) were diluted with 100 μl PBS to be 0, 0.25, 0.5 mg/kg per mouse, administrated in the right abdominal cavity (every 2 days and a total of 10 times) for each concentration, and then sacrificed to extract the spleen and the bone marrow. Thereafter, spleen cells and bone marrow cells were extracted and stained by a trypan blue staining method and then the number of cells was measured by using a hematocytometer.
(§5) In order to verify effects of decitabine and gemcitabine on immune cells in the bone marrow, the decitabine and the gemcitabine were administrated to the tumorigenic mice prepared in Example 1 and then the numbers of cells in a T cell population, a B cell population, an NK cell population, an NKT cell population, and a myeloid-based cell population in the bone marrow were measured.
(§6) Particularly, by the method disclosed in Example 3, decitabine (DAC) or gemcitabine (GEM) was administrated and then the bone marrow was extracted. Thereafter, the bone marrow was stained by using the antibodies disclosed in Example 4-1, and then the number of cells was measured through a flow cytometer (FIGS. 8 to 10).

[4] = system: cells in the spleen and the bone marrow; assay: Number of cells in spleen and bone marrow of tumorigenic mice, trypan blue staining (Example 3); format: in vivo, mouse; conditions: intraperitoneal, every 2 days, 10 times; for number of bone marrow cells: 0, 0.25, 0.5 mg/kg, FIG. 2 right
Protocol: as §3
It was well-known that gemcitabine suppressed myeloid-derived suppressor cells (MDSC) derived from the tumor (Clin Cancer Res 2005; 11(18) Sep. 15, 2005), and the gemcitabine has been used as an anticancer chemotherapeutic agent. Accordingly, whether the decitabine is usable as an anticancer chemotherapeutic agent like the gemcitabine was verified through the comparison with the gemcitabine. First, in order to verify effects of decitabine and gemcitabine on cells in the spleen and the bone marrow, the decitabine and the gemcitabine were administrated to the tumorigenic mice prepared in Example 1 and then the number of cells in the spleen and the bone marrow was measured.
as §4

[5] = system: granulocytic, monokaryotic and MDSC cell populations in the spleen; assay: Number of cells of subpopulations of myeloid-based cell population in spleen of tumorigenic mice (Example 4-2); format: in vivo, mouse
Protocol: as §4
(§7) In order to verify an effect of decitabine or gemcitabine on cells of a subpopulation of myeloid-based cell populations in the spleen and the bone marrow, decitabine and gemcitabine were administrated to the tumorigenic mice prepared in Example 1 and then the numbers of cells in a granulocytic cell population, a monokaryotic cell population, and an MDSC cell population were measured.
Particularly, by the method disclosed in Example 3, decitabine (DAC) or gemcitabine (GEM) was administrated and then the spleen was extracted. Thereafter, monokaryotic and granulocytic cell populations were stained with fluorescence-bound antibodies purchased by BD Corporation and then the numbers of cells were measured through a flow cytometer.
In order to measure the numbers of cell in the monokaryotic cell population and the granulocytic cell population, anti-CD11b, anti-F480 and anti-Gr1 antibodies were used (FIG. 6).
In order to measure the number of cells of the subpopulation of the MDSC cell population, anti-CD11b, anti-Ly6c and anti-Ly6g antibodies were used (FIG. 7).

[6] = system: immune cells in the spleen; assay: Number of immune cells in spleen of tumorigenic mice, flow cytometer (Example 4-1); format: in vivo, mouse; conditions: for T cell populations CD3+, CD3+CD4+, CD3+CD8+ in the spleen: 0, 0.25, 0.5 mg/kg intraperitoneal, FIG. 3
Protocol: as §4
as §5, with “spleen,” for “bone marrow,”, “spleen” for “bone marrow”
Particularly, by the method disclosed in Example 3, decitabine (DAC) or gemcitabine (GEM) was administrated and then the spleen was extracted. Thereafter, each immune cell population were stained with fluorescence-bound antibodies purchased by BD Corporation and then the number of cells was measured through a flow cytometer.
In order to measure the number of cells in the T cell population, an anti-CD3 antibody, an anti-CD4 antibody, and an anti-CD8 antibody were used (FIG. 3).
In order to the number of cells in the B cell population, an anti-B220 antibody was used. Further, in order to measure the number of cells in the NK and NKT cell populations, anti-CD3 and anti-NK1.1 antibodies were used (FIG. 4).
In order to measure the number of cells in the myeloid-based cell population, an anti-CD11b antibody and an anti-CD11c antibody were used (FIG. 5).

[7] = system: granulocytic, monokaryotic and MDSC cell populations in the bone marrow; assay: Number of cells of subpopulations of myeloid-based cell population in bone marrow of tumorigenic mice (Example 5-2); format: in vivo, mouse
Protocol: as §4
as §7, with “populations in the bone” for “populations in the spleen and the bone”, “cell population in the bone marrow were measured.” for “cell population were measured.”
as §6, with “4-2,” for “4-1,”, “11” for “8”, “12).” for “10).”

[8] = system: myeloid-derived suppressor cells; conditions: gemcitabine comparison dose; cited from earlier work
[9] = 0, 0.125, 0.25, 0.5, 1 mg/kg, right abdominal cavity, FIG. 1
[10] = similarly to the gemcitabine, FIG. 6
[11] = at a lower concentration than gemcitabine, FIG. 4
[12] = compared with the gemcitabine, FIG. 11

Compound: O=c1[nH]cc(F)c(=O)[nH]1 [5-FU, 5-fluorouracil]
- number of MDSC (MDSC): significantly reduces

Compound: Nc1ncn([C@H]2C[C@H](O)[C@@H](CO)O2)c(=O)n1 [decitabine, 5-aza-2′-deoxycytidine]
- creation degree (expression) of IL-6 in the tumor (IL-6): reduced
- number of cells in the MDSC cell population in vitro (MDSC cell population): rapid reduction
- survival rate [1, 9]: no difference
- tumor size [1, 9]: no difference
- toxicity induction by repeated administration ([1]; up to 1 mg/kg): exclude a toxicity induction possibility
- dose with excellent MDSC suppression effect [2]: 0.5 mg/kg
- creation degree (expression) of VEGF in the tumor (VEGF): reduced
- creation degree (expression) of IFN-γ in the tumor (IFN-γ): reduced
- number of T cell populations CD3+ and CD3+CD4+ in the bone marrow [3]: increased
- NK cell population CD3-NK1.1+ in the bone marrow, significant changes ([3]; FIG. 9): not induced
- NKT cell population CD3+NK1.1+ in the bone marrow, significant changes ([3]; FIG. 9): not induced
- B cell population B220+ in the bone marrow ([3]; as compared with the gemcitabine, FIG. 9): reduction
- myeloid-based cell populations CD11b+ and CD11c+ in the bone marrow ([3]; as compared with the gemcitabine, FIG. 10): rapid reduction
- number of bone marrow cells [4]: not significantly exhibited
- number of spleen cells ([4]; dose concentration 0.5 mg/kg, FIG. 2 left): significantly reduced
- granulocytic cell population CD11b+F480-Gr1hi in the spleen [5, 10]: rapid reduction
- monokaryotic cell population CD11b+F480+Gr1- in the spleen [5, 10]: rapid reduction
- subpopulations CD11b+Ly6c+Ly6g+, CD11b+Ly6chi of the MDSC cell population in the spleen ([5]; to the degree of similar to or higher than the gemcitabine, FIG. 7): rapid reduction
- T cell populations CD3+, CD3+CD4+, CD3+CD8+ in the spleen [6]: slight
- NKT cell population CD3+NK1.1+ in the spleen, significant change ([6]; FIG. 4): not induced
- myeloid-based cell populations CD11b+ and CD11c+ in the spleen ([6]; as compared with the gemcitabine, FIG. 5): rapid reduction
- B cell population B220+ in the spleen [6, 11]: reduction
- NK cell population CD3-NK1.1+ in the spleen [6, 11]: reduction
- granulocytic cell population CD11b+F480-Gr1hi in the bone marrow [7, 12]: more rapid reduction
- monokaryotic cell population CD11b+F480+Gr1- in the bone marrow [7, 12]: more rapid reduction
- subpopulations CD11b+Ly6c+Ly6g+ and CD11b+Ly6chi of the MDSC cell population in the bone marrow ([7]; to a much higher degree than the gemcitabine, FIG. 12): rapid reduction

Compound: Nc1ccn([C@@H]2O[C@H](CO)[C@@H](O)C2(F)F)c(=O)n1 [gemcitabine]
- number of T cell populations CD3+ and CD3+CD4+ in the bone marrow [3]: increased
- number of bone marrow cells [4]: increased in a concentration-dependent manner
- number of MDSC (MDSC): significantly reduces
- T cell populations CD3+, CD3+CD4+, CD3+CD8+ in the spleen [6]: rapid reduction
- effective dose with MDSC suppression effect [8]: 120 mg/kg

— patent US10821127B2, “Composition for inhibiting myeloid-derived suppressor cells comprising decitabine or its pharmaceutically acceptable salt as active ingredient” (SNU R&DB Foundation, priority 2015, dated 2020)
